Reference: patent US5876676A, “Preservation of blood platelets” (priority 1996, dated 1999)
Starred links: 1 amine or outer side, 2 acyl side, 3 side chain; linkers in the order of their positions; H or OH if unused. Positions of bridges follow the written chain, without caps; N, C: chain ends. Non-standard residues stand in square brackets, D forms with d. Residues, ends and D or L forms follow the SMILES beside them. Trp(2-yl) = O=C([C@H](Cc1c([*:3])[nH]c2ccccc12)N[*:1])[*:2]; Leu(4R-OH,5-OH) = C[C@](O)(CO)C[C@H](N)C(=O)O; cisHyp = O=C(O)[C@@H]1C[C@H](O)CN1

What was measured:
platelets [1] = assay: Morphology and cytoskeleton of Quin-2-loaded platelets, resting or activated (light and electron microscopy); assay type: cell-based, human
Experimental: (§1) Human blood from healthy volunteers, drawn into 0.1 vol of Aster-Jandl anticoagulant, was centrifuged at 110 g for 10 min. The platelet-rich plasma was gel-filtered through a Sepharose 2B column equilibrated and eluted with a solution containing 145 mM NaCl, 10 mM Hepes, 10 mM glucose, 0.5 mM Na2 HPO4, 5 mM KCl, 2 mM MgCl2, and 0.3% BSA, pH 7.4 (platelet buffer). 2 U/ml apyrase was added to the platelet suspension and the cells were left standing for 60 min. at 37° C. as previously reported (Hartwig, J., and M. DeSisto, 1991 J. Cell Biol. 112:407-425; Hartwig, J., et al. 1989 J. Cell Biol. 109:1571-1579). To maintain cytosolic calcium at or below its resting level during cell activation, cells were loaded with 30 uM Quin-2AM during minutes 30-60 of the rest period. The effect of Quin-2 was reversed by the addition of 1 mM CaCl2 to the bathing media before centrifugation of the Quin 2-loaded cells onto the coverslips or after the cells had been attached and formed filopodia on the coverslip. Glass-adherent, Quin-2 loaded cells were also treated with 1 mM CaCL2 and 20 nM of the ionophore A23187 for 15 seconds (s) and then detergent permeabilized. In some cases, platelets were used directly from platelet-rich plasma by diluting it 1:20 with platelet buffer containing, in addition, 0.1 mM EGTA and 2 U/ml apyrase. The diluted cells were incubated for 30 min. at 37° C. to insure a resting state.
Platelet suspensions were activated by the addition of 1 U/ml of thrombin (hereafter called thrombin-activated) for 15-30 seconds in studies of nucleation activity. Activation was terminated by permeabilizing the cells as detailed below. Glass activation was used for the morphological studies. Cells were glass-activated by centrifugation onto polylysine-coated glass coverslips at 250 g for 5 min. Coverslips were placed in the bottom of multiwell plates (24 or 96 wells), covered with 0.25 ml of platelet suspension, and centrifuged at 37° C. in a Sorvall HB-6000 centrifuge using multiwell carriers.
Light microscopy and electron microscopy of platelets and cytoskeletons were performed according to standard methods, see e.g., Hartwig, J., 1992, J. Cell Biol. 118(6):1421-1442. The localization of gelsolin in platelets was performed by gold labeling of cytoskeletons from resting and activated cells with antibodies to gelsolin. The affinity-purified goat anti-rabbit macrophage gelsolin IgG was described earlier (Hartwig, J., and M. DeSisto, 1991 J. Cell Biol. 112:407-425; Hartwig, J., and P. Shevlin, 1986 J. Cell Biol. 103:1007-1020).

platelets [2] = assay: Nucleation activity in lysates from Quin-2-loaded, thrombin-activated platelets; assay type: cell-based, human
Experimental: as §1, with “In some cases, platelets were used directly from platelet-rich plasma by diluting it 1:20 with platelet buffer containing, in addition, 0.1 mM EGTA and 2 U/ml apyrase. The diluted cells were incubated for 30 min. at 37° C. to insure a resting state.” left out
The effect of cell lysates on the rate and extent of pyrene-labeled rabbit skeletal muscle actin was determined as described previously (Hartwig, J., and P. Janmey, 1989 Biochim. Biophys. Acta. 1010:64-71). […] The relative contribution of nuclei with barbed or pointed ends in the cell lysates was determined by adding 2 uM cytochalasin B to the pyrene nucleation assay system. […] To determine if the measured stimulation of actin assembly and its decay with time was due to the growth of pyrene-actin addition onto cellular filaments subject to depolymerization in the diluted lysate, 0.1 uM phalloidin or phallacidin was added to the cell lysates during their preparation to stabilize the filaments. […] However, we also determined that the soluble phase from cells permeabilized with detergent in the presence of EGTA contained calcium dependent nucleation activity. […]

[3] = Quin-2-loaded platelets, glass activated

CNc1ccc2oc(C[C@H]3O[C@@]4(CC[C@H]3C)O[C@H]([C@H](C)C(=O)c3ccc[nH]3)[C@H](C)C[C@H]4C)nc2c1C(=O)O [A23187]
Cytoskeletons of Quin-2-loaded, glass-activated cells after external calcium plus ionophore (platelets [1]; added external calcium (1 mM CaCl2) with 20 nM A23187, within seconds): completely disrupted

COc1cc(N(CC(=O)OCOC(C)=O)CC(=O)OCOC(C)=O)c2nc(COc3cc(C)ccc3N(CC(=O)OCOC(C)=O)CC(=O)OCOC(C)=O)ccc2c1 [Quin-2AM, acetoxymethyl ester of quin-2]
Effect on structure of resting cells and their cytoskeletons (platelets [1]; 30 uM Quin-2AM loading, light microscope): no effect | Swelling, actin filament severing and extension of lamellipodial networks associated with platelet activation (platelets [1]; quin-2AM prior to activation with thrombin): prevented

COc1cc(N(CC(=O)O)CC(=O)O)c2nc(COc3cc(C)ccc3N(CC(=O)O)CC(=O)O)ccc2c1 [Quin-2]
Rearrangements of gelsolin on activation (immunoelectron microscopy) (platelets [1]; Quin-2-loaded and activated cells): did not occur | Filopodia length (platelets [1]; [3]): 2-5 um | Morphology after glass activation (platelets [1]; [3]): extend filopodia but not lamellipodia | activity at 30 µM (platelets [2]; Homo sapiens, Platelet, Quin-2-loaded, thrombin-activated, assayed immediately, read-out: Nucleation activity relative to lysates from untreated and activated cells): 28% | Stability of nucleation activity in detergent lysates (platelets [2]; Quin-2-loaded cells, lysates incubated as long as 10 min before assay): no loss in its activity

C[C@@H]1NC(=O)[C@H](C[C@@](C)(O)CO)NC(=O)[C@@H]2Cc3c([nH]c4ccccc34)SC[C@H](NC(=O)[C@@H]([C@H](C)O)NC1=O)C(=O)N1C[C@@H](O)C[C@H]1C(=O)N[C@@H](C)C(=O)N2 [phalloidin] (cyclo(A[dT]C[cisHyp]A[Trp(2-yl)][Leu(4R-OH,5-OH)]); thioether 3-6)
Effect on nucleation activity in lysates from Quin-2-loaded cells (platelets [2]; 0.1 uM phalloidin in lysates, Quin-2-loaded, thrombin-activated): no effect
